Data: patent publication US8247594B2, “Insecticidal compounds” (Syngenta Crop Protection LLC, priority 2007, dated 2012)

Key:
Myzus persicae = Myzus persicae (green peach aphid) leaf disc spray test; format: in vivo; details: application rate 200 ppm, sprayed sunflower leaf discs, mixed ages, 6 DAT; mortality
Protocol: Myzus Persicae (Green Peach Aphid): Sunflower leaf discs were placed on agar in a 24-well microtiter plate and sprayed with test solutions at an application rate of 200 ppm. After drying, the leaf discs were infested with an aphid population of mixed ages. After an incubation period of 6 DAT, samples were checked for mortality.

Tetranychus urticae = Tetranychus urticae (two-spotted spider mite) leaf disc spray test; format: in vivo; details: application rate 200 ppm, sprayed bean leaf discs, mixed ages, 8 days; egg, larval and adult mortality
Description: Tetranychus Urticae (Two-Spotted Spider Mite): Bean leaf discs on agar in 24-well microtiter plates were sprayed with test solutions at an application rate of 200 ppm. After drying, the leaf discs are infested with mite populations of mixed ages. 8 days later, discs are checked for egg mortality, larval mortality, and adult mortality.

| SMILES | control of Myzus persicae (Myzus persicae) | control of Tetranychus urticae (Tetranychus urticae) |
| --- | --- | --- |
| CCc1cc(C(F)(C(F)(F)F)C(F)(F)C(F)(F)F)cc(CC)c1NC(=O)c1ccc(C#N)c(NC(=O)OCC(Cl)(Cl)Cl)c1 (centres unmarked) [A12] | at least 80% |  |
| N#Cc1ccc(C(=O)Nc2c(Br)cc(C(F)(C(F)(F)F)C(F)(F)F)cc2Br)cc1NC(=O)OCC(Cl)(Cl)Cl [A11] |  | at least 80% |
